From PubChem BioAssay (NCI)
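Exposure lasted 48 hours, with cells grown in 96-well plates and compounds tested at five concentrations. Here, GI50 denotes the concentration required for 50% inhibition of growth. The concentration for full growth arrest is given as TGI.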

Assays:
Experiment in all cases: growth of human tumour cells (NCI), 48 h
786-0 renal = test system: 786-0 renal
HOP-62 NSCLC = test system: HOP-62 NSCLC
A498 renal = test system: A498 renal
HT29 colon = test system: HT29 colon
M14 melanoma = test system: M14 melanoma
SNB-75 CNS = test system: SNB-75 CNS
COLO 205 colon = test system: COLO 205 colon
SF-268 CNS = test system: SF-268 CNS
HOP-92 NSCLC = test system: HOP-92 NSCLC
A549 NSCLC = test system: A549 NSCLC
NCI-H226 lung = test system: NCI-H226 lung
K-562 leukemia = test system: K-562 leukemia
ACHN renal = test system: ACHN renal
HCT-15 colon = test system: HCT-15 colon
MDA-MB-435 = test system: MDA-MB-435
SW-620 colon = test system: SW-620 colon
OVCAR-3 ovarian = test system: OVCAR-3 ovarian
BT-549 breast = test system: BT-549 breast
SN12C renal = test system: SN12C renal
UO-31 renal = test system: UO-31 renal
NCI-H522 lung = test system: NCI-H522 lung
TK-10 renal = test system: TK-10 renal
HCC-2998 colon = test system: HCC-2998 colon
EKVX NSCLC = test system: EKVX NSCLC
U251 CNS = test system: U251 CNS
SK-MEL-28 melanoma = test system: SK-MEL-28 melanoma
HCT-116 colon = test system: HCT-116 colon
SF-539 CNS = test system: SF-539 CNS
RXF 393 renal = test system: RXF 393 renal
SK-MEL-5 melanoma = test system: SK-MEL-5 melanoma
SK-MEL-2 melanoma = test system: SK-MEL-2 melanoma
KM12 colon = test system: KM12 colon
SK-OV-3 ovarian = test system: SK-OV-3 ovarian
OVCAR-8 ovarian = test system: OVCAR-8 ovarian
DU-145 prostate = test system: DU-145 prostate
SF-295 CNS = test system: SF-295 CNS
CCRF-CEM leukemia = test system: CCRF-CEM leukemia
CAKI-1 renal = test system: CAKI-1 renal
UACC-257 melanoma = test system: UACC-257 melanoma
OVCAR-5 ovarian = test system: OVCAR-5 ovarian
SNB-19 CNS = test system: SNB-19 CNS
T-47D breast = test system: T-47D breast
NCI-H460 lung = test system: NCI-H460 lung

For `Nc1nc(N)c2c(n1)NC(c1ccc(C(F)(F)F)cc1)CC(c1ccc(Nc3nc(NCCO)nc(Nc4ccc(Cl)cc4)n3)cc1)=N2` (stereo unspecified), which GI50 (786-0 renal) is on record?
The GI50 was 1390 nM.

What about the TGI (786-0 renal) of the same molecule?
The TGI was 2910 nM.

And the GI50 (HOP-62 NSCLC)?
Its GI50 is 1630 nM.

And the TGI (HOP-62 NSCLC)?
Its TGI is 3160 nM.

What about the GI50 (A498 renal) of the same molecule?
The GI50 was 1560 nM.

And the TGI (A498 renal)?
The TGI was 2900 nM.

And the GI50 (HT29 colon)?
The GI50 was 1360 nM.

What about the TGI (HT29 colon) of the same molecule?
Its TGI is 2990 nM.

What about the GI50 (M14 melanoma) of the same molecule?
The GI50 was 1640 nM.

What about the TGI (M14 melanoma) of the same molecule?
Its TGI is 3060 nM.

And the GI50 (SNB-75 CNS)?
Its GI50 is 1700 nM.

And the TGI (SNB-75 CNS)?
The TGI was 3930 nM.

And the GI50 (COLO 205 colon)?
Its GI50 is 1330 nM.

And the TGI (COLO 205 colon)?
Its TGI is 2640 nM.

What about the GI50 (SF-268 CNS) of the same molecule?
The GI50 was 1660 nM.

And the TGI (SF-268 CNS)?
Its TGI is 3470 nM.

What about the GI50 (HOP-92 NSCLC) of the same molecule?
The GI50 was 1480 nM.

What about the TGI (HOP-92 NSCLC) of the same molecule?
The TGI was 3430 nM.

And the GI50 (A549 NSCLC)?
The GI50 was 1730 nM.

What about the TGI (A549 NSCLC) of the same molecule?
Its TGI is 3500 nM.

What about the GI50 (NCI-H226 lung) of the same molecule?
Its GI50 is 1840 nM.

What about the TGI (NCI-H226 lung) of the same molecule?
Its TGI is 3910 nM.

What about the GI50 (K-562 leukemia) of the same molecule?
Its GI50 is 642 nM.

And the TGI (K-562 leukemia)?
Its TGI is > 100000 nM.

What about the GI50 (ACHN renal) of the same molecule?
The GI50 was 1500 nM.

And the TGI (ACHN renal)?
The TGI was 2820 nM.

And the GI50 (HCT-15 colon)?
Its GI50 is 1150 nM.

What about the TGI (HCT-15 colon) of the same molecule?
The TGI was 2580 nM.

What about the GI50 (MDA-MB-435) of the same molecule?
The GI50 was 1400 nM.

What about the TGI (MDA-MB-435) of the same molecule?
The TGI was 2720 nM.

And the GI50 (SW-620 colon)?
Its GI50 is 1600 nM.

And the TGI (SW-620 colon)?
The TGI was 3360 nM.

And the GI50 (OVCAR-3 ovarian)?
Its GI50 is 1320 nM.

What about the TGI (OVCAR-3 ovarian) of the same molecule?
Its TGI is 2940 nM.

And the GI50 (BT-549 breast)?
Its GI50 is 1570 nM.

What about the TGI (BT-549 breast) of the same molecule?
The TGI was 3160 nM.

What about the GI50 (SN12C renal) of the same molecule?
Its GI50 is 1760 nM.

What about the TGI (SN12C renal) of the same molecule?
Its TGI is 3340 nM.

What about the GI50 (UO-31 renal) of the same molecule?
Its GI50 is 1430 nM.

And the TGI (UO-31 renal)?
Its TGI is 2760 nM.

And the GI50 (NCI-H522 lung)?
The GI50 was 1340 nM.

What about the TGI (NCI-H522 lung) of the same molecule?
The TGI was 2720 nM.

What about the GI50 (TK-10 renal) of the same molecule?
Its GI50 is 1780 nM.

And the TGI (TK-10 renal)?
Its TGI is 3170 nM.

And the GI50 (HCC-2998 colon)?
Its GI50 is 1310 nM.

What about the TGI (HCC-2998 colon) of the same molecule?
The TGI was 2620 nM.

And the GI50 (EKVX NSCLC)?
The GI50 was 1520 nM.

And the TGI (EKVX NSCLC)?
The TGI was 2960 nM.

And the GI50 (U251 CNS)?
Its GI50 is 1240 nM.

What about the TGI (U251 CNS) of the same molecule?
The TGI was 2530 nM.

And the GI50 (SK-MEL-28 melanoma)?
The GI50 was 1530 nM.

What about the TGI (SK-MEL-28 melanoma) of the same molecule?
Its TGI is 2860 nM.

And the GI50 (HCT-116 colon)?
The GI50 was 1050 nM.

And the TGI (HCT-116 colon)?
The TGI was 2410 nM.

And the GI50 (SF-539 CNS)?
The GI50 was 1560 nM.

And the TGI (SF-539 CNS)?
The TGI was 2970 nM.

And the GI50 (RXF 393 renal)?
Its GI50 is 1140 nM.

What about the TGI (RXF 393 renal) of the same molecule?
The TGI was 2500 nM.

What about the GI50 (SK-MEL-5 melanoma) of the same molecule?
Its GI50 is 1550 nM.

And the TGI (SK-MEL-5 melanoma)?
Its TGI is 2890 nM.

And the GI50 (SK-MEL-2 melanoma)?
Its GI50 is 1670 nM.

What about the TGI (SK-MEL-2 melanoma) of the same molecule?
The TGI was 3070 nM.

What about the GI50 (KM12 colon) of the same molecule?
The GI50 was 1370 nM.

What about the TGI (KM12 colon) of the same molecule?
Its TGI is 2880 nM.

What about the GI50 (SK-OV-3 ovarian) of the same molecule?
The GI50 was 1830 nM.

And the TGI (SK-OV-3 ovarian)?
Its TGI is 3450 nM.

And the GI50 (OVCAR-8 ovarian)?
The GI50 was 1500 nM.

What about the TGI (OVCAR-8 ovarian) of the same molecule?
The TGI was 2940 nM.

What about the GI50 (DU-145 prostate) of the same molecule?
The GI50 was 1510 nM.

What about the TGI (DU-145 prostate) of the same molecule?
Its TGI is 2840 nM.

And the GI50 (SF-295 CNS)?
The GI50 was 1790 nM.

What about the TGI (SF-295 CNS) of the same molecule?
Its TGI is 3320 nM.

And the GI50 (CCRF-CEM leukemia)?
The GI50 was 1230 nM.

And the TGI (CCRF-CEM leukemia)?
The TGI was > 100000 nM.

And the GI50 (CAKI-1 renal)?
Its GI50 is 1450 nM.

And the TGI (CAKI-1 renal)?
The TGI was 2850 nM.

What about the GI50 (UACC-257 melanoma) of the same molecule?
The GI50 was 1750 nM.

What about the TGI (UACC-257 melanoma) of the same molecule?
The TGI was 3190 nM.

And the GI50 (OVCAR-5 ovarian)?
The GI50 was 1600 nM.

What about the TGI (OVCAR-5 ovarian) of the same molecule?
Its TGI is 3000 nM.

What about the GI50 (SNB-19 CNS) of the same molecule?
The GI50 was 1510 nM.

And the TGI (SNB-19 CNS)?
Its TGI is 2950 nM.

And the GI50 (T-47D breast)?
Its GI50 is 1550 nM.

What about the TGI (T-47D breast) of the same molecule?
Its TGI is 3690 nM.

And the GI50 (NCI-H460 lung)?
Its GI50 is 1960 nM.

And the TGI (NCI-H460 lung)?
The TGI was 4010 nM.
